The values that follow come from publication PMC7481197, “Uncovering the cytochrome P450-catalyzed methylenedioxy bridge formation in streptovaricins biosynthesis” (Nature Communications, 2020).

Common to all, as to format: biochemical
Assay [1] deals with T1, StvP2 (Streptomyces spectabilis, UniProt A0A286SBY7).
T1 construct: N-terminal 6xHis tag, eight amino acids between tag and StvP2 removed, expressed in E. coli C43(DE3); heme-containing (Cys349 ligand); one molecule per asymmetric unit when substrate-free
The assay can be described thus: HPLC-DAD product formation, modified Hill equation fit. The settings on record: spinach Fdx/FdR, 4 mM NADPH, 50 mM Tris-HCl pH 7.5, 28 °C, 4 min; ascending arm of substrate-inhibition curve; read-out: Ks.

Assay [2] concerns the target T1, StvP2. Described as above. Conditions: spinach Fdx/FdR, 4 mM NADPH, 50 mM Tris-HCl pH 7.5, 28 °C, 4 min; substrate inhibition, descending arm.
Another assay concerns the target T2, StvM1 (Streptomyces spectabilis, UniProt A0A286SC47).
T2 construct: N-terminal 6xHis tag, pET28a(+) NdeI/EcoRI, expressed in E. coli BL21(DE3)
T2 sequence (A0A286SC47 1-202): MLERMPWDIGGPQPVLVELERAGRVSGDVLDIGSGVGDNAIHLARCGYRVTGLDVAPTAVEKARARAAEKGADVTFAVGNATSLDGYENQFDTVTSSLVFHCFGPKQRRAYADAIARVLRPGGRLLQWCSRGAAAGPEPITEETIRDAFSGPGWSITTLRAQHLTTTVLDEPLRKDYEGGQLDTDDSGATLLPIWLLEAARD
The experiment in a line: LC-ESI-HRMS conversion of […] to […]. Conditions: methyl donor; 100 μM damavaricin C, 50 mM Tris-HCl pH 7.5, 28 °C, 3 h.

T1 sequence (A0A286SBY7 entry or part of it): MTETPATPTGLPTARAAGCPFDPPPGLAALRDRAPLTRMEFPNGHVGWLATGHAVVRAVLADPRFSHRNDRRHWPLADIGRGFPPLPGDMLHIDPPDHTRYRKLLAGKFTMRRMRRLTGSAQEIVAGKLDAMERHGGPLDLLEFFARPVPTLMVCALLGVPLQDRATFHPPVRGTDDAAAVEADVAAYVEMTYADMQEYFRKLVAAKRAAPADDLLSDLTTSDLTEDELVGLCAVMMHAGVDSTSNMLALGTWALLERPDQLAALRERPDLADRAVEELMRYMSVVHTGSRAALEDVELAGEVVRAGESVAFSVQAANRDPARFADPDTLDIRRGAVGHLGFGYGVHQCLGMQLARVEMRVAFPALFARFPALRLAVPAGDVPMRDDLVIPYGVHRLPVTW

6-methoxy-streptovaricin H [compound 4]: on StvP2 [1], the Km was found to be 95.6 ± 30.8 µM. This compound registered a Ki on StvP2 [2] of 399.35 ± 122.10 µM.

For `C[S+](CC[C@H](N)C(=O)O)C[C@H]1O[C@@H](n2cnc3c(N)ncnc32)[C@H](O)[C@@H]1O` (stereo partly shown) [SAM], the “LC-ESI-HRMS conversion of 7 to 8” value at StvM1 was “using SAM as methyl donor”.

For 6-methoxy-streptovaricin D [compound 6], the Km on StvP2 [1] was 67.4 ± 28.4 µM. Also, the Ki on StvP2 [2] turned out to be 288.50 ± 122.60 µM.

`COC(=O)[C@@H]1[C@H](O)[C@H](C)[C@H](O)[C@H](C)/C=C\C=C(/C)C(=O)Nc2c(C)c(OC(C)=O)c3c(c(OC)c(C)c(O)c3c2O)C(=O)/C(C)=C/[C@@](C)(O)[C@H](O)[C@@H](C)[C@H]1O` [compound 2, 6-methoxy-streptovaricin C]: the Km at StvP2 [1] turned out to be 110 ± 46.2 µM. This compound also displayed a Ki on StvP2 [2] of 367.30 ± 128.57 µM.
